{"source": "patent US8969357B2", "about": "“Methods for treating HCV” (AbbVie Inc., priority 2011, dated 2015)", "key": {"1a-H77 replicons": {"system": "1a-H77 replicons", "experiment": "Predominant resistant variants selected in genotype 1a replicons", "format": "cell-based, HCV", "experimental": "(§1) Predominant resistant variants selected by Compound 1, 2, or 4 in genotype 1 replicons were also determined. For Compound 1, the predominant resistance variants in 1a-H77 replicons include R155K, D168A and D168V with fold resistance of 26, 48 and 128, respectively; and the predominant resistance variants in 1b-Con1 replicons include R155K, A156T and D168V with fold resistance of 48, 9 and 190, respectively. For Compound 2, the predominant resistance variants in 1a-H77 replicons include C316Y, M414T, Y448C and S556G with fold resistance of 1600, 36, 980 and 15, respectively; and the predominant resistance variants in 1b-Con1 replicons include C316Y, M414T and D559G with fold resistance of 1400, 26 and 100, respectively. For Compound 4, the predominant resistance variants in 1a-H77 replicons include M28T, M28V, Q30R, Y93C and Y93H with fold resistance of 9000, 60, 800, 1700 and 41000, respectively; and the predominant resistance variants in 1b-Con1 replicons include Y93H with fold resistance of 55."}, "1b-Con1 replicons": {"system": "1b-Con1 replicons", "experiment": "Predominant resistant variants selected in genotype 1b replicons", "format": "cell-based, HCV", "experimental": "as §1"}}}
{"smiles": "Cc1cnc(C(=O)N[C@H]2CCCCC/C=C\\[C@@H]3C[C@@]3(C(=O)NS(=O)(=O)C3CC3)NC(=O)[C@@H]3C[C@@H](Oc4nc5ccccc5c5ccccc45)CN3C2=O)cn1", "note": "[Compound 1, (2R,6S,13aS,14aR,16aS,Z)—N-(cyclopropylsulfonyl)-6-(5-methylpyrazine-2-carboxamido)-5,16-dioxo-2-(phenanthridin-6-yloxy)-1,2,3,5,6,7,8,9,10,11,13a,14,14a,15,16,16a-hexadecahydrocyclopropa[e]pyrrolo[1,2-a][1,4]diazacyclopentadecine-14a-carboxamide]", "values": [{"measurement": "fold resistance", "setting": "1a-H77 replicons; variant D168A", "value": 48, "unit": "fold"}, {"measurement": "fold resistance", "setting": "1a-H77 replicons; variant D168V", "value": 128, "unit": "fold"}, {"measurement": "fold resistance", "setting": "1a-H77 replicons; variant R155K", "value": 26, "unit": "fold"}, {"measurement": "fold resistance", "setting": "1b-Con1 replicons; variant A156T", "value": 9, "unit": "fold"}, {"measurement": "fold resistance", "setting": "1b-Con1 replicons; variant D168V", "value": 190, "unit": "fold"}, {"measurement": "fold resistance", "setting": "1b-Con1 replicons; variant R155K", "value": 48, "unit": "fold"}]}
{"smiles": "COc1c(-c2ccc3cc(NS(C)(=O)=O)ccc3c2)cc(-n2ccc(=O)[nH]c2=O)cc1C(C)(C)C", "note": "[Compound 2, N-(6-(3-tert-butyl-5-(2,4-dioxo-3,4-dihydropyrimidin-1(2H)-yl)-2-methoxyphenyl)naphthalen-2-yl)methanesulfonamide]", "values": [{"measurement": "fold resistance", "setting": "1a-H77 replicons; variant C316Y", "value": 1600, "unit": "fold"}, {"measurement": "fold resistance", "setting": "1a-H77 replicons; variant M414T", "value": 36, "unit": "fold"}, {"measurement": "fold resistance", "setting": "1a-H77 replicons; variant S556G", "value": 15, "unit": "fold"}, {"measurement": "fold resistance", "setting": "1a-H77 replicons; variant Y448C", "value": 980, "unit": "fold"}, {"measurement": "fold resistance", "setting": "1b-Con1 replicons; variant C316Y", "value": 1400, "unit": "fold"}, {"measurement": "fold resistance", "setting": "1b-Con1 replicons; variant D559G", "value": 100, "unit": "fold"}, {"measurement": "fold resistance", "setting": "1b-Con1 replicons; variant M414T", "value": 26, "unit": "fold"}]}
{"smiles": "COC(=O)N[C@H](C(=O)N1CCC[C@H]1C(=O)Nc1ccc([C@@H]2CC[C@@H](c3ccc(NC(=O)[C@@H]4CCCN4C(=O)[C@@H](NC(=O)OC)C(C)C)cc3)N2c2ccc(C(C)(C)C)cc2)cc1)C(C)C", "note": "[Compound 4, dimethyl (2S,2′S)-1,1′-((2S,2′S)-2,2′-(4,4′-(2S,5S)-1-(4-tert-butylphenyl)pyrrolidine-2,5,diyl)bis(4,1-phenylene))bis(azanediyl)bis(oxomethylene)bis(pyrrolidine-2,1-diyl)bis(3-methyl-1-oxobutane-2,1-diyl)dicarbamate]", "values": [{"measurement": "fold resistance", "setting": "1a-H77 replicons; variant M28T", "value": 9000, "unit": "fold"}, {"measurement": "fold resistance", "setting": "1a-H77 replicons; variant M28V", "value": 60, "unit": "fold"}, {"measurement": "fold resistance", "setting": "1a-H77 replicons; variant Q30R", "value": 800, "unit": "fold"}, {"measurement": "fold resistance", "setting": "1a-H77 replicons; variant Y93C", "value": 1700, "unit": "fold"}, {"measurement": "fold resistance", "setting": "1a-H77 replicons; variant Y93H", "value": 41000, "unit": "fold"}, {"measurement": "fold resistance", "setting": "1b-Con1 replicons; variant Y93H", "value": 55, "unit": "fold"}]}
